Laboratory results published in patent US6008046A, “Drug and pesticide screening” (priority 1993, dated 1999).
Counter-ions that a name gives are not always drawn. Like-named read-outs stand apart in the source and are kept apart here.

Columns and labels:
[1] = system: mutant GABA receptor (Ala to Ser mutant Rdl); assay: Two-electrode voltage clamp of Xenopus oocytes expressing Ala to Ser mutant GABA receptor; assay type: cell-based, Drosophila melanogaster
Method: (§1) The cloning of cDNA's from the GABAA locus allows for functional expression of mRNA derived from this and other subunit cDNA templates in various cell types.
(§2) In the Xenopus oocyte expression system, oocytes removed from ovaries of adult Xenopus are arrested at the first meiotic prophase. Because each oocyte is fairly large and has a large nucleus, it is technically easy to inject foreign DNA into the oocyte nucleus. Typically, 20-40 nl is injected through a finely drawn glass capillary. The endogenous Xenopus RNA polymerases transcribe this injected exogenous DNA. Mertz and Gurdon, Proc. Natl. Acad. Sci. USA 74:1502 (1977). The exogenous DNA is assembled into chromatin, but there is no replication of injected duplex DNA in the oocyte. Gargilo and Worcel, J. Mol. Biol., 170:699 (1983); Ryoji and Worcel, Cell 37:21 (1984). Single-stranded DNA (e.g., DNA obtained by cloning in M13 vectors), is converted to duplex form within the oocyte nucleus. The Xenopus oocyte also efficiently translates mRNA injected into its cytoplasm.
(§3) Various studies have shown that this Xenopus expression system is feasible for expression of foreign DNA. Kreig and Melton, EMBO J 4:3464 (1985); Masu et al., Nature 329:836 (1987); Wilson et al., Cell 47:589 (1986); see also, Old and Primrose, Principles of Gene Manipulation, 4th ed. (Blackwell Scientific Publications, Oxford, 1989)(pp. 296-302).
(§4) In the system of the present invention, messenger RNA produced from cDNA template, (both messenger RNA and cDNA template are considered to be part of the present invention), is injected into Xenopus eggs which then express the protein. By patch clamp electrophysiology experiments, one can then determine whether the cell is expressing the protein (measured by electrical impulses) and whether this expression can be altered by the compound of interest.
(§5) Currents were recorded in 96 mM NaCl, 2 mM Kcl, 1.8 mM MgCl2, and 5 mM Hepes. Recordings were made 1-5 days after injection. […] Dieldrin was dissolved in DMSO (dimethylsulfoxide), then diluted to a final concentration of 0.1% DMSO. The single base pair substitution of GCG (alanine) to TCG (serine) was introduced into the sensitive cDNA 14.1 by subcloning in a restriction fragment from the insensitive cDNA. The region containing the mutation was then amplified by PCR from total embryonic RNA from Rdl^R-MD flies and subsequently digested with EcoRV and Acc1. This restriction fragment was then cloned into the sensitive cDNA 14.1 cut with the same enzymes to yield the Ala to Ser mutant construct.
(§6) In order to test the effect of the resistance-associated Ala to Ser mutation, this substitution was introduced into the sensitive cDNA (as discussed above). […] Pharmacological comparisons were made using thirty oocytes injected with each type of RNA.

[2] = biological target: T1, mutant GABA receptor (Ala to Ser mutant Rdl) (Drosophila melanogaster, UniProt P25123, A301S/I283V); assay: as above; assay type: cell-based; conditions: for sensitivity of Ala>Ser mutant compared with wild-type: thirty oocytes with each type of RNA (FIGS. 10b-e); for Reduction in GABA response (mean (s.d.)): xenopus oocytes; for response of mutant channels to GABA and muscimol compared with wild-type channels: Ala to Ser mutant vs wild-type
T1 construct: expressed in transfected cells; host or cells: Xenopus oocytes injected with RNA derived from the Ala to Ser mutant of cDNA 14.1
Method: as §1, §2, §3, §4, §5, §6

D. melanogaster [3] = conditions: 30 μg dieldrin, ffrench-Constant et al. 1990, cited from earlier work
D. melanogaster [4] = assay: Dieldrin contact bioassay, fly mortality in coated vials after 24 hours; assay type: in vivo; conditions: for mortality at 0.03 mg: Drosophila melanogaster, 24 h, 30 μg dieldrin
Method: More specifically, FIG. 2 depicts the crosses used to rescue cyclodiene insecticide susceptibility via P-element-mediated germline transformation. As depicted, embryos containing an endogenous source of transposase (Δ2,3) were injected with a cosmid carrying a susceptible copy of the gene and a copy of the mini-white eye color gene as a selectable marker. Successful G0 transformants with red eyes (w^+) were subsequently crossed into flies hemizygous for resistance and a deficiency uncovering the resistance gene Df(3L)29A6. These flies carrying the w^+ S insert (transferred DNA) are susceptible to a dose of 30 μg dieldrin, whereas their siblings without the insert are resistant to this dose.
In order to more precisely localize the gene within the 200 kb of DNA isolated from the 66F subregion, new chromosomal rearrangements were induced using γ irradiation and screened for those uncovering the resistance gene. Chromosomal rearrangements were generated by exposing male SS flies with multiply marked third chromosomes (rucuca strain) to 4,000 rads of radiation in a γ radiation (cesium) source, and then outcrossing these R/R (Rdl^R /Rdl^R) females. New rearrangements uncovering resistance were screened for by exposing their progeny at a dose of 30 μg dieldrin, at which only R/Df (Rdl^R /Df) flies will survive (all the expected RS progeny will die at this dose level except for any R/- flies wherein "-" is any new rearrangement uncovering the resistance gene), survivors were crossed to In(3LR)TM3/Sb and maintained as a balanced stock (Df/In(3LR)TM3).
Approximately 50,000 flies were screened. For screening, 20 ml glass scintillation vials were coated internally with 30 μg of dieldrin in acetone and rolled until dry. Twenty to thirty flies per vial were added and mortality was recorded after 24 hours at 25° C..
As both of the cytologically visible rearrangements giving two new recombinant bands on a Southern with probes from cosmid 6 have only one breakpoint within 66F, this cluster of breakpoints which disrupts the gene must therefore mark its location. In order to determine whether cosmid 6 contained a functional copy of the gene for cyclodiene resistance, P-element germline transformation with this cosmid was carried out. Following successful isolation of a w^+ transformant, linkage to the insert to the second chromosome was established after crossing male G0 progeny to a stock bearing markers on the second and third chromosomes (FIG. 2). […]
Entomol., 83:1733, (1990). […] These field-collected and isofemale strains were used in the initial identification of the resistance-associated mutation, but studies of linkage to other restriction-site markers in D. melanogaster were done with isochromsomal lines to ensure that only a single chromosome was being analyzed.

[5] = biological target: normal GABA receptor (wild-type Rdl, cDNA 14.1) (Drosophila melanogaster, UniProt P25123, I283V); assay: cell-based; conditions: for Reduction in GABA response (mean (s.d.)): xenopus oocytes
Method: as §1, §2, §3, §4, §5, §6

[6] = system: larval central nerve cord of Rdl^R-MD; conditions: dieldrin, 10 μM concentration; Bloomquist et al. 1991; cited from earlier work
chloride ion channels = conditions: thiocyanate ions vs chloride; cited from earlier work
[7] = system: PTX binding sites on the GABA receptor; conditions: cyclodiene-resistant vs susceptible strains; Matsumura et al. 1987; cited from earlier work
[8] = system: cultured Rdl^R-MD neurons; assay: Whole cell patch clamp of cultured Rdl^R-MD neurons; assay type: cell-based, Drosophila melanogaster; conditions: PTX
[9] = read-out: Reduction in GABA response (mean (s.d.))
[10] = wild-type mRNA, voltage clamped at -60 mV

T1 sequence (P25123 other isoform, or with tags, fused parts or gaps I283V/A301S): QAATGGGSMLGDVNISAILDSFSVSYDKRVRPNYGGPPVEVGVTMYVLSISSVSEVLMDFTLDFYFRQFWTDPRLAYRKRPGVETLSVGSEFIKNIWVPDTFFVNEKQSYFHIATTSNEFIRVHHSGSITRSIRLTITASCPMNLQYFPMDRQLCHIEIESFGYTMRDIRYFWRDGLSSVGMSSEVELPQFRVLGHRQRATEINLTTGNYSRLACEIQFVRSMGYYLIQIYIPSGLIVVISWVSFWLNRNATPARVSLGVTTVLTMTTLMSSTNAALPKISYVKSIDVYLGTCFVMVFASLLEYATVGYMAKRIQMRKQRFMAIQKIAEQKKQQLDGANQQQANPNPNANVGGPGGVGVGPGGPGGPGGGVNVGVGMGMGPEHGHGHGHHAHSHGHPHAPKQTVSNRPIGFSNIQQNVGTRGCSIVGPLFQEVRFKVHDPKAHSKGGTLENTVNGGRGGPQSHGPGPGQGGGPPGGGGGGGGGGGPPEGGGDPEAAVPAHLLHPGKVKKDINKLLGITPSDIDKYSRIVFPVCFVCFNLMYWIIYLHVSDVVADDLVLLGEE
Sequence of normal GABA receptor (wild-type Rdl, cDNA 14.1) (P25123 other isoform, or with tags, fused parts or gaps I283V): as the sequence (P25123 other isoform, or with tags, fused parts or gaps I283V/A301S) above, with S257A counted along it

ClC1=C(Cl)[C@]2(Cl)[C@@H]3[C@@H]4C[C@@H]([C@H]5O[C@@H]45)[C@@H]3[C@@]1(Cl)C2(Cl)Cl [dieldrin]
loss of sensitivity conferred by the mutation ([1]; dieldrin, from comparison of effects of lower doses): 50-100 fold
block of the GABA response, in words ([2]; […] μM dieldrin, insensitive mutant cDNA (FIG. 10e)): little effect
sensitivity of expressed chloride ion channels carrying the Ala to Ser mutation ([2]; mutation of resistant D. melanogaster): insensitivity
inhibition at 10 µM [2, 9]: 23%
sensitivity of Ala>Ser mutant compared with wild-type [2]: consistently lower sensitivity
Reduction in GABA response (mean (s.d.)) ([2]; 10 µM): 12 (11) %
survival of RR flies (D. melanogaster [3]; RR flies): 85%
kill of RS and SS genotypes (D. melanogaster [3]; RS and SS flies): kills all RS and SS genotypes
mortality at 0.03 mg (D. melanogaster [4]; flies carrying the cosmid 6 insert (Rdl^R/Rdl^S), n=221): 93%
mortality at 0.03 mg (D. melanogaster [4]; siblings without the insert (Rdl^R/Df(3L)29A6), n=214): 7%
susceptibility to 30 μg dieldrin, in words (D. melanogaster [4]; flies carrying the w+ S insert): susceptible
susceptibility to 30 μg dieldrin, in words (D. melanogaster [4]; siblings without the insert): resistant
solubility ([5]; dissolved in DMSO, diluted to final 0.1% DMSO, concentration above 10 μM not possible): limited solubility
inhibition at 10 µM [5, 9]: 78%
inhibition at 10 µM ([5]; read-out: block of the GABA response, 10 μM dieldrin, wild-type "sensitive" cDNA (FIG. 10c)): > 75%
Reduction in GABA response (mean (s.d.)) ([5]; 10 µM): 80 (6) %
sensitivity of larval central nerve cord of Rdl^R-MD [6]: Insensitivity

NCc1cc(=O)[nH]o1 [muscimol, muscimol hydrobromide]
response of mutant channels to GABA and muscimol compared with wild-type channels [2]: apparently identical to the wild-type channels

NCCCC(=O)O [GABA, γ-aminobutyric acid]
response of mutant channels to GABA and muscimol compared with wild-type channels [2]: apparently identical to the wild-type channels
recovery of response to GABA during washing ([5]; after PTX or dieldrin, washed with saline 20 min, all experiments (wild-type and mutant)): at least 50%
reversal potential of GABA-evoked currents ([5]; wild-type mRNA): -20 to -25 mv
maximum current, lower end of range [5, 10]: 50 nA
maximum current, upper end of range [5, 10]: > 5 μA

N#CS [thiocyanate]
permeation through chloride ion channels relative to chloride (chloride ion channels): seven

C=C(C)[C@@H]1[C@H]2OC(=O)[C@@H]1[C@]1(O)C[C@H]3O[C@]34C(=O)O[C@H]2[C@]14C [PTX, Picrotoxinin]
reduction in sensitivity induced by the mutation ([1]; PTX, mutant vs wild-type oocytes): approximately 100 fold
block of the GABA response, in words ([2]; 1 μM PTX, Ala to Ser mutant (FIG. 10d)): little effect
inhibition at 1 µM [2, 9]: 8%
inhibition at 10 µM [2, 9]: 61%
inhibition at 50 µM [2, 9]: 75%
inhibition at 1 µM ([2]; read-out: Reduction in GABA response (mean (s.d.)), Mutant, 1 μM PTX, oocytes with GABA EC50 […] μM, n = 6): 8%
sensitivity of Ala>Ser mutant compared with wild-type [2]: consistently lower sensitivity
Reduction in GABA response (mean (s.d.)) ([2]; 10 µM): 48 (6) %
Reduction in GABA response (mean (s.d.)) ([2]; 50 µM): 56 (6) %
affinity for PTX of resistant strains relative to susceptibles [7]: one tenth
inhibition at 1 µM [5, 9]: 73%
inhibition at 10 µM [5, 9]: 96%
inhibition at 50 µM [5, 9]: 96%
inhibition at 1 µM ([5]; read-out: block of the GABA response, 1 μM PTX, wild-type "sensitive" cDNA (FIG. 10b)): > 70%
Reduction in GABA response (mean (s.d.)) ([5]; 1 µM): 78 (12) %
Reduction in GABA response (mean (s.d.)) ([5]; 10 µM): 90 (13) %
Reduction in GABA response (mean (s.d.)) ([5]; 50 µM): 97 (5) %
reduction in sensitivity [8]: approximately 100 fold

C[N+]1(C)CCc2cc3c(cc2[C@H]1[C@@H]1OC(=O)c2c1ccc1c2OCO1)OCO3 [bicuculline, (-)-bicuculline methiodide]
block of GABA-evoked currents by bicuculline ([5]; bicuculline 100 μM with 10 μM GABA (FIG. 10a)): not blocked
